Data published in patent US9993529B2, “Stable formulations of a hyaluronan-degrading enzyme” (Halozyme, Inc., priority 2011, dated 2018).
Like-named read-outs stand apart in the source and are kept apart here. Residues, ends and D or L forms follow the SMILES beside them.

Columns and labels:
[1] = SEC, % main rHuPH20 peak; format: physicochemical
Description: SEC was performed using the following conditions: 1× Phosphate Buffered Saline (PBS), a Toso BioScience G2000 SWXL column, and a flow rate set at 1 mL/min. Data were collected as described above and means were reported and entered into the design table following the sample sequence provided by the DOE software.

[2] = RP-HPLC insulin apparent solubility / percent recovery (content)
Description: Apparent solubility was measured as the percent insulin recovery as compared to the initial formulations/conditions.
Samples were prepared by withdrawing 100 μL from each vial at every time point and centrifuging prior to loading. Samples were stored in an autosampler at 4° C. prior to use, and were considered stable for 3 days after preparation. All samples were tested in duplicate.
For insulin, 20 μL was injected for each HPLC run.
To determine the apparent solubility, the peak area of insulin/insulin analog main peak and desamido peak were integrated and combined together to calculate the percentage relative to the standards. […] The data were processed using Design-Expert® 7.0 (StatEase) and the “historical data” feature. Insulin percent purity was expressed as the percent of main insulin versus all insulin species.

[3] = molecular target: T1, rHuPH20 (Homo sapiens, UniProt P38567); settings: for Effect on rHuPH20 enzymatic activity: stabilizer screen in rHuPH20/insulin formulation ([…] m-cresol, 0.2% phenol, pH 7.3±0.1), 30° C. about one week, semi-quantitative in comparison with NaCl; for rHuPH20 activity: 48 hours
T1 sequence (P38567 36-482): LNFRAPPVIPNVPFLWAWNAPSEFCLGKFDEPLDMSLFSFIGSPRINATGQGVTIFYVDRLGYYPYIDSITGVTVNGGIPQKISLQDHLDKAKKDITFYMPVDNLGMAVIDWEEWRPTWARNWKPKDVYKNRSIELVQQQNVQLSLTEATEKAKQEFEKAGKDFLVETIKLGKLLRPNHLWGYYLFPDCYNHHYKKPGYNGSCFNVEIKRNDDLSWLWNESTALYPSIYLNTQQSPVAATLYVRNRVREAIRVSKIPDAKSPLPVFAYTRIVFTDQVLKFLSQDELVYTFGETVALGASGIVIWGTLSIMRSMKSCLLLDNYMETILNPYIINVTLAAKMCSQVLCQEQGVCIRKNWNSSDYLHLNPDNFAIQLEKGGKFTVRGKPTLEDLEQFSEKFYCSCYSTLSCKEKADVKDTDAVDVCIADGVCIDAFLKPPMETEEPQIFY
Description: The activity of a hyaluronan degrading enzyme can be assessed using methods well known in the art. […] A Hyaluronidase Reference Standard (USP) or National Formulary (NF) Standard Hyaluronidase solution can be used in an assay to ascertain the activity, in units, of any hyaluronidase. In one example, activity is measured using a microturbidity assay. […] The turbidity of the resulting sample is measured at 640 nm after an additional development period.

[4] = Temperature effect on pH and NaOH titration of lysyl lysine buffer; format: physicochemical; settings: Ex27 rHuPH20/insulin glulisine formulations
[5] = RP-HPLC rHuPH20 oxidation peaks (ox-1, ox-2); format: physicochemical; settings: 0.02% surfactant, 30° C., 72 hours
Source text: The stability of hyaluronan degrading enzymes in a composition, such as in the co-formulations provided herein, also can be assessed using other methods and assays known in the art. […] Percent recovery is the relative percentage of the hyaluronidase in the co-formulation over time and at various storage conditions, as compared to a reference sample. […] An increase in particle size and a decrease in the melting temperature indicates denaturation and subsequent aggregation of the hyaluronidase. […] Other methods known to one of skill in the art that can be used to determine the stability of the hyaluronidase in the co-formulations provided herein, include polyacrylamide gel electrophoresis (PAGE), immunoblotting, nuclear magnetic resonance (NMR) spectroscopy, mass spectrometry, circular dichroism (CD) and dye-based fluorescence assays.
The formulations varied in the surfactant and surfactant concentration and the buffer (either histidine or phosphate).
Methionine oxidation can be prevented by addition of free methionine as a scavenger to react with potential oxidative compounds.

[6] = in vivo; cited from earlier work
[7] = 35° C., 1 day, concentrations of Table 21
[8] = stabilizer screen in rHuPH20/insulin formulation, RP-HPLC on samples stored at 5° C., semi-quantitative in comparison with NaCl
[9] = 4° C., concentrations of Table 22

OCCCCCl [4-Chloro-1-butanol]
% Main rHuPH20 peak by non-denaturing SEC [1, 7]: <LOD

C[N+](C)(C)CC(=O)O [Betaine]
Effect on insulin solubility [2, 8]: No effect | Effect on rHuPH20 enzymatic activity [3]: No effect

NC(=O)CC[C@H](N)C(=O)O [Glutamine]
Effect on insulin solubility [2, 8]: No effect | Effect on rHuPH20 enzymatic activity [3]: No effect

NCC(=O)NCC(=O)O [Gly-Gly] (H-Gly-Gly-OH)
Effect on rHuPH20 enzymatic activity [3]: No effect

O[C@H]1[C@H](O)[C@@H](O)[C@H](O)[C@@H](O)[C@H]1O [Inositol]
Effect on rHuPH20 enzymatic activity [3]: No effect

N[C@@H](Cc1ccccc1)C(=O)O [L-Phenylalanine]
% Main rHuPH20 peak by non-denaturing SEC [1, 9]: 100.00%

Cl.Cl.NCCCCC(N)C(=O)NC(CCCCN)C(=O)O (stereo not drawn) [Lys-Lys, H-Lys-Lys-OH HCl]
temperature effect (dpH/dT) [4]: −0.033 U/° C. | Effect on insulin solubility [2, 8]: Reduced solubility | Effect on insulin solubility ([2]; stabilizer screen, 5° C.): caused severe precipitation of insulin | Lys-Lys concentration sufficient to improve rHuPH20 stability ([3]; Ex24, 40° C.): 10 mM | Effect on rHuPH20 enzymatic activity [3]: Strong stabilizer | stabilization of rHuPH20 compared with NaCl ([3]; stabilizer screen, […] m-cresol, 0.2% phenol, 30° C., about one week): stabilized rHuPH20 more than NaCl

NCCCC[C@H](N)C(=O)O [Lysine]
Effect on insulin solubility [2, 8]: No effect | Effect on rHuPH20 enzymatic activity [3]: No effect

OC[C@@H](O)[C@@H](O)[C@H](O)[C@H](O)CO [Mannitol]
Effect on rHuPH20 enzymatic activity [3]: No effect

O=C(O)CCCc1ccccc1 [Phenyl butyric acid]
Effect on rHuPH20 enzymatic activity [3]: No effect

O=C([O-])c1ccccc1.[Na+] [Sodium Benzoate]
Effect on rHuPH20 enzymatic activity [3]: No effect

OC[C@H]1O[C@@](CO)(O[C@H]2O[C@H](CO)[C@@H](O)[C@H](O)[C@H]2O)[C@@H](O)[C@@H]1O [Sucrose]
Effect on rHuPH20 enzymatic activity [3]: No effect

OC[C@H]1O[C@H](O[C@H]2O[C@H](CO)[C@@H](O)[C@H](O)[C@H]2O)[C@H](O)[C@@H](O)[C@@H]1O [Trehalose]
Effect on rHuPH20 enzymatic activity [3]: No effect

C[N+](C)(C)[O-] [Trimethylamine oxide (TMAO)]
Effect on insulin solubility [2, 8]: No effect | Effect on rHuPH20 enzymatic activity [3]: No effect

NC(CO)(CO)CO [Tris (100 mM)]
Effect on insulin solubility [2]: No effect | Effect on rHuPH20 enzymatic activity [3]: No effect

OCC(O)CO [glycerol]
Effect on insulin solubility [2]: No/slight effect; | Effect on rHuPH20 enzymatic activity [3]: No effect

Cc1cccc(O)c1 [m-cresol]
% Main rHuPH20 peak by non-denaturing SEC [1, 9]: 100.00% | rHuPH20 activity ([3]; 35° C.): <LOQ

CSCC[C@H](N)C(=O)O [methionine]
Effect on insulin solubility [2, 8]: No effect | Effect on rHuPH20 enzymatic activity [3]: No effect

COC(=O)c1ccc(O)cc1 [methylparaben]
% Main rHuPH20 peak by non-denaturing SEC [1, 9]: 100.00% | rHuPH20 activity ([3]; 4° C.): 10,380 | rHuPH20 activity ([3]; 35° C.): 12,660 | Enzymatic Activity of rHuPH20 ([3]; preservative 0.05 %, 1 Month, 25° C., insulin/rHuPH20): 2061 U/mL | Enzymatic Activity of rHuPH20 ([3]; preservative 0.05 %, 1 Week, 35° C.): 1058^2 U/mL | Enzymatic Activity of rHuPH20 ([3]; preservative 0.05 %, 2 Weeks, 35° C.): 1018^2 U/mL | Enzymatic Activity of rHuPH20 ([3]; preservative 0.1 %, 1 Month, 25° C.): 1919 U/mL | Enzymatic Activity of rHuPH20 ([3]; preservative 0.1 %, 1 Week, 35° C.): 2085 U/mL | Enzymatic Activity of rHuPH20 ([3]; preservative 0.1 %, 2 Weeks, 35° C.): 1968 U/mL | Enzymatic Activity of rHuPH20 ([3]; preservative 0.2 %, 1 Month, 25° C.): 2196 U/mL | Enzymatic Activity of rHuPH20 ([3]; preservative 0.2 %, 1 Week, 35° C.): 1927 U/mL | Enzymatic Activity of rHuPH20 ([3]; preservative 0.2 %, 2 Weeks, 35° C.): 1590 U/mL | Enzymatic Activity of rHuPH20 ([3]; preservative 0.3 %, 1 Month, 25° C.): 2049 U/mL | Enzymatic Activity of rHuPH20 ([3]; preservative 0.3 %, 2 Weeks, 35° C.): 447 U/mL

OC[C@@H](O)[C@@H](O)[C@H](O)[C@@H](O)CO [sorbitol]
Effect on rHuPH20 enzymatic activity [3]: No effect

Benzalkonium Chloride
% Main rHuPH20 peak by non-denaturing SEC [1, 7]: <LOD

Polysorbate 20
% of Oxidation Peak 1 of rHuPH20 ([5]; Methionine 0 mM): 4.01% | % of Oxidation Peak 1 of rHuPH20 ([5]; Methionine 2 mM): 3.43% | % of Oxidation Peak 1 of rHuPH20 ([5]; Methionine 10 mM): 3.37% | % of Oxidation Peak 1 of rHuPH20 ([5]; Methionine 50 mM): 3.38%

Polysorbate 80
% of Oxidation Peak 1 of rHuPH20 ([5]; Methionine 0 mM): 4.01% | % of Oxidation Peak 1 of rHuPH20 ([5]; Methionine 2 mM): 3.50% | % of Oxidation Peak 1 of rHuPH20 ([5]; Methionine 10 mM): 3.44% | % of Oxidation Peak 1 of rHuPH20 ([5]; Methionine 50 mM): 3.34%

detemir: long-lasting insulin analog
Duration [6]: 28 h

glargine: long-lasting insulin analog
Duration [6]: 28 h
